Several values for one entry are separate records, joined by “and”; a condition that tells them apart may be missing. Equal values may be shown once. Where a name gives a salt, the structure may show the parent alone.
System: tomato leaf transpiration
Test: tomato leaf transpiration inhibition (porometer, normalized to water-sprayed plants)
Type: in vivo, Tomato (variety: Rutgers)

`CC1=CC(=O)CC(C)(C)[C@@]1(O)/C=C/C(C)=C\C(=O)O` [ABA ammonium salt, Ammonium Salt of (S)-(+)-Abscisic Acid] was tested, and the “Transpiration rate (% of control)” value (in vivo) was 57 % of control and 67 % of control and 78 % of control and 76 % of control and 88 % of control and the “Transpiration rate (% of control), Average” value (in vivo) was 68 % of control and 81 % of control.

For `[Ca+2].[Cl-].[Cl-]` [CaCl2, calcium chloride], the “Transpiration rate (% of control)” value (in vivo) was 97 % of control and 101 % of control and 98 % of control and the “effect on tomato leaf transpiration (in words)” value (in vivo) was “did not affect tomato leaf transpiration”.

In the case of `NC(N)=O` [Urea, urea], the “Transpiration rate (% of control)” value (1 mM urea alone, foliar, 1 day after treatment) is reported as 103 % of control, the “Transpiration rate (% of control)” value (1 mM urea alone, foliar, 2 days after treatment) is reported as 98 % of control and the “Transpiration rate (% of control)” value (1 mM urea alone, foliar, 3 days after treatment) is reported as 98 % of control. For the same compound, the “Transpiration rate (% of control)” value (1 mM urea alone, foliar, 4 days after treatment) was 100 % of control, the “Transpiration rate (% of control)” value (10 mM urea alone, foliar, 1 day after treatment) was 101 % of control and the “Transpiration rate (% of control)” value (10 mM urea alone, foliar, 2 days after treatment) was 103 % of control. For the same compound, the “Transpiration rate (% of control)” value (10 mM urea alone, foliar, 3 days after treatment) was 106 % of control, the “Transpiration rate (% of control)” value (10 mM urea alone, foliar, 4 days after treatment) was 101 % of control and the “Transpiration rate (% of control)” value (100 mM urea alone, foliar, 1 day after treatment) was 102 % of control. For the same compound, the “Transpiration rate (% of control)” value (100 mM urea alone, foliar, 2 days after treatment) was 102 % of control, the “Transpiration rate (% of control)” value (100 mM urea alone, foliar, 3 days after treatment) was 107 % of control and the “Transpiration rate (% of control)” value (100 mM urea alone, foliar, 4 days after treatment) was 102 % of control. The “effect on tomato leaf transpiration (in words)” value (fertilizer or salt alone at 1, 10 or 100 mM, foliar) was “did not reduce tomato leaf transpiration”.

In the case of “(S)-5-(1-hydroxy-2,6,6,-trimethyl-4-oxo-2-cyclohexen-1-yl)-3-methyl-(2Z,4E)-pentadienoic acid [ABA, reference compound]”, the “Transpiration rate (% of control), Average” value (in vivo) is reported as 69 % of control and 78 % of control.

From patent US7837757B2, “Enhanced abscisic acid and fertilizer performance” (Valent BioSciences Corporation, priority 2007, dated 2010)
